≈ marks a conversion by molar mass, not a printed value. Positions of bridges follow the written chain, without caps; N, C: chain ends. Residues, ends and D or L forms follow the SMILES beside them.
Legend:
Alternaria alternata = experiment: 96-well plate MIC assay with resazurin viability; type: cell-based; conditions: Table 19; unit not given (peptide concentrations in μM)
Botrytis cinerea T-4 = conditions: Table 18
Cercospora sojina = experiment: 96-well plate MIC assay with resazurin viability; type: cell-based; conditions: Table 19; unit not given (peptide concentrations in μM)
[1] = test system: Colletotrichum gloeosporioides; experiment: 96-well plate MIC assay with resazurin viability; type: cell-based; conditions: Table 19; unit not given (peptide concentrations in μM)
B. cinerea = experiment: Semi-in planta gray mold assay on detached Nicotiana benthamiana leaves (drop inoculation); type: in vivo, Botrytis cinerea

| SMILES | MIC Alternaria alternata (Alternaria alternata) | MIC (μM) SFM (Botrytis cinerea T-4) [µM] | MIC (μM) (SFM + 2 mM CaCl2) (Botrytis cinerea T-4) [µM] | MIC (μM) (SFM + 100 mM KCl) (Botrytis cinerea T-4) [µM] | MIC (μM) (SFM + 100 mM NaCl) (Botrytis cinerea T-4) [µM] | MIC Cercospora sojina (Cercospora sojina) | MIC Colletotrichum gloeosporioides [1] | reducing gray mold disease symptoms (lesion sizes) (B. cinerea; detached N. benthamiana leaves, 1.5 μM, 3 μM and 6 μM, 48 h) | reducing the symptoms of gray mold, comparison (B. cinerea; low concentrations of 1.5 μM and 3 μM, compared with GMA4C_V9) |
| --- | --- | --- | --- | --- | --- | --- | --- | --- | --- |
| C[C@H](NC(=O)CN)C(=O)N[C@H]1CSSC[C@@H](C(N)=O)NC(=O)[C@H](CCCCN)NC(=O)[C@H](CCCCN)NC(=O)[C@H](Cc2ccc(O)cc2)NC(=O)[C@H](Cc2ccccc2)NC(=O)[C@H](Cc2ccccc2)NC(=O)[C@H](Cc2ccccc2)NC(=O)[C@H](C)NC(=O)[C@H](Cc2ccccc2)NC(=O)CNC(=O)[C@H](Cc2ccccc2)NC(=O)CNC(=O)[C@H](CCC(N)=O)NC(=O)[C@H](CCCNC(=N)N)NC(=O)[C@H](Cc2c[nH]cn2)NC1=O [GMA5CA_V4] (H-GACHRQGFGFAFFFYKKC-NH2; disulfide 3-18; N-terminus assumed) | 3 | 3 (≈ 6.33 µg/mL) | >12 | >12 | >12 | 6 | >12 | – | – |
| C[C@H](NC(=O)CN)C(=O)N[C@H]1CSSC[C@@H](C(N)=O)NC(=O)[C@H](CCCCN)NC(=O)[C@H](CCCCN)NC(=O)[C@H](Cc2ccc(O)cc2)NC(=O)[C@H](Cc2c[nH]c3ccccc23)NC(=O)[C@H](Cc2ccccc2)NC(=O)[C@H](Cc2c[nH]c3ccccc23)NC(=O)[C@H](C)NC(=O)[C@H](Cc2ccccc2)NC(=O)CNC(=O)[C@H](Cc2ccccc2)NC(=O)CNC(=O)[C@H](CCC(N)=O)NC(=O)[C@H](CCCNC(=N)N)NC(=O)[C@H](Cc2c[nH]cn2)NC1=O [GMA5CA_V3] (H-GACHRQGFGFAWFWYKKC-NH2; disulfide 3-18; N-terminus assumed) | 3 | 3 (≈ 6.57 µg/mL) | >12 | >12 | >12 | 6 | >12 | – | – |
| C[C@H](NC(=O)CN)C(=O)N[C@@H](CS)C(=O)N[C@@H](Cc1c[nH]cn1)C(=O)N[C@@H](CCCNC(=N)N)C(=O)N[C@@H](CCC(N)=O)C(=O)NCC(=O)N[C@@H](Cc1ccccc1)C(=O)NCC(=O)N[C@@H](Cc1ccccc1)C(=O)N[C@@H](C)C(=O)N[C@@H](CS)C(=O)N[C@@H](Cc1ccccc1)C(=O)N[C@@H](CS)C(=O)N[C@@H](Cc1ccc(O)cc1)C(=O)N[C@@H](CCCCN)C(=O)N[C@@H](CCCCN)C(=O)N[C@@H](CS)C(N)=O [GMA5CA_WT, reference compound] (H-GACHRQGFGFACFCYKKC-NH2; N-terminus assumed) | 6 | – | – | – | – | 12 | >12 | – | – |
| CC[C@H](C)[C@@H]1NC(=O)[C@H](CCCNC(=N)N)NC(=O)[C@H]([C@@H](C)O)NC(=O)[C@H](Cc2c[nH]c3ccccc23)NC(=O)[C@H](Cc2ccc(O)cc2)NC(=O)[C@H](Cc2c[nH]c3ccccc23)NC(=O)[C@H](CCCNC(=N)N)NC(=O)[C@H](CCCNC(=N)N)NC(=O)[C@H](CCCNC(=N)N)NC(=O)[C@H](Cc2ccccc2)NC(=O)CNC(=O)[C@H](CCCCN)NC(=O)[C@@H](NC(=O)[C@H](CCCNC(=N)N)NC(=O)CNC(=O)CN)CSSC[C@@H](C(N)=O)NC1=O [GMA4C_V10] (H-GGRCKGFRRRWYWTRIC-NH2; disulfide 4-17; N-terminus assumed) | >12 | 3 (≈ 6.6 µg/mL) | 3 | 3 to 6 | 3 | 6 | >12 | effective | more effective |
